Test results reported in patent publication US10086086B2, “Payload molecule delivery using molecular rebar” (Molecular Rebar Design, LLC, priority 2014, dated 2018).
Where two headings read alike, the source gives them in different places. Values belong to the molecule of their own block, whether it stands above or below them.

What was measured:
[1] = in water, cited from earlier work
[2] = Displacement of adsorbed payload molecule from discrete carbon nanotubes by later addition of PVOH; assay type: physicochemical
[3] = not given; remark: listed apart in the source

Molecule: NC(=O)CC[C@@H]1NC(=O)[C@H](Cc2ccccc2)NC(=O)[C@H](Cc2ccc(O)cc2)NC(=O)CCSSC[C@@H](C(=O)N2CCC[C@H]2C(=O)N[C@H](CCCN=C(N)N)C(=O)NCC(N)=O)NC(=O)[C@H](CC(N)=O)NC1=O [Desmopressin]
- Hydrodynamic Radius [1]: 0.88 nm

Molecule: Cytochrome C
- Hydrodynamic Radius [1]: 2.64 nm

Molecule: Bovine serum albumin
- Hydrodynamic Radius [1]: 7.0 nm
- Hydrodynamic Radius ([1]; listed as bovine serum albumin): 7 nm

- adsorbed niacin released by subsequent addition of PVOH ([2]; Example 4: PVOH added after niacin adsorption equilibrium, weight ratio 0.23 PVOH:1 discrete carbon nanotubes): 25 % wt.
- reduction of the amount of niacin adsorbed on the discrete carbon nanotubes after sodium hydroxide addition (Example 7: PVOH-encapsulated, 2 ml 0.1 Molar sodium hydroxide, overall period 40 + 55 + 110 minutes, pH about 4.2 to 8): about 42%
- ratio of niacin adsorbed internally versus externally (times less internally) ([3]; Example 1, assumes same adsorption concentration on both walls): about 2.4 times
- niacin adsorbed, less than in Example 1 ([3]; Example 3 (PVOH added at the same time) versus Example 1 (no PVOH)): ~30%
Molecule: O=C(O)c1cccnc1 [Niacin, Pyridine-3-carboxylic acid]
- final adsorption of niacin after sodium hydroxide addition (Example 6: no PVOH, 2 ml 0.1 molar sodium hydroxide added after equilibrium, pH from about 4 to about 7.3, about 180 minutes): 0.03 g niacin/g discrete carbon nanotubes
- equilibrium niacin concentration on discrete carbon nanotubes before pH increase (Example 7: niacin then PVOH, PVOH to discrete carbon nanotubes 0.3:1 by weight): 0.0476 g niacin/g discrete carbon nanotubes
- Hydrodynamic Radius [1]: 0.33 nm
- amount of niacin adsorbed after 5 hours ([3]; Example 2: nanotubes with 0.05% weight oxidized species, otherwise as Example 1): 0.088 g niacin/g discrete carbon nanotubes
- concentration of adsorbed niacin after a further 85 minutes ([3]; Example 5: nanotubes pretreated with PVOH about 20 hours, then niacin added, 100 + 85 minutes): 0.0226 g niacin/g of discrete carbon nanotubes

Molecule: Insulin
- Hydrodynamic Radius [1]: 2.1 nm

Molecule: CCOP(=O)(Cc1ccc(OC)cc1)OCC [D4MBP]
- D4MBP originally residing on the outermost wall displaced by the PVOH, estimated ([2]; Example 10, calculation as in Example 1): about 80%

Molecule: CN1CCCC1c1cccnc1 (centres unmarked) [Nicotine]
- Hydrodynamic Radius [1]: 0.38 nm

B1: Myoglobin (protein, UniProt P68082 2-154, looked up)
Myoglobin: GLSDGEWQQVLNVWGKVEADIAGHGQEVLIRLFTGHPETLEKFDKFKHLKTEAEMKASEDLKKHGTVVLTALGGILKKKGHHEAELKPLAQSHATKHKIPIKYLEFISDAIIHVLHSKHPGDFGADAQGAMTKALELFRNDIAAKYKELGFQG
- Hydrodynamic Radius [1]: 3.34 nm
